“Also recorded” adds a separate entry of the source.
Assays:
[1] = test system: heart and kidney; conditions: heart and kidney (refs. 29, 45); cited from earlier work
[2] = target: T1, Na/Ca exchange (Homo sapiens, UniProt P32418); conditions: cardiac and renal tissues (ref. 26); cited from earlier work
T1 construct: host or cells: cardiac and renal tissues (as cited)

[3] = test system: cultured bovine blood-brain barrier endothelial cells; experiment: Intracellular calcium (Fluo-4 fluorescence) in cultured blood-brain barrier cells under simulated ischemia-reperfusion; format: cell-based; conditions: 20 μM KB-R7943 (reverse Na/Ca exchange inhibition), methanesulphonate
Protocol: FIG. 4 is a bar graph of data showing that when cerebral capillary endothelial cells are exposed to ischemic conditions, intracellular calcium concentration increases and remains elevated during reperfusion; the elevation in intracellular calcium is prevented by pharmacological inhibition of the Na/H antiporter. Cultured bovine blood-brain barrier cells were treated as described above (FIG. 2). […] The rise in intracellular calcium observed during reperfusion was prevented by inhibiting Na/H antiport (100 μM DMA). *P<0.05 compared to control. +P<0.05 compared to reperfusion. Values are mean±SD. Intracellular calcium was measured with fluorescent imaging, using Fluo-4.
FIG. 5 is a bar graph of data showing that when cerebral capillary endothelial cells are exposed to ischemic conditions, intracellular calcium concentration increases and remains elevated during reperfusion; the elevation in intracellular calcium is prevented by pharmacological inhibition of reverse movement of the Na/Ca exchanger. Cultured bovine blood-brain barrier cells were treated as described above (FIG. 2). […] The rise in intracellular calcium observed during reperfusion was prevented by inhibiting reverse movement of Na/Ca exchange (20 μM KB-R7943). *P<0.05 compared to control. +P<0.05 compared to reperfusion. Values are mean±SD. Intracellular calcium was measured with fluorescent imaging, using Fluo-4. […]

SMILES: CS(=O)(=O)O.N=C(N)SCCc1ccc(OCc2ccc([N+](=O)[O-])cc2)cc1 [KB-R7943, 2-[2-[4-(4-nitrobenzyloxy)phenyl]ethyl]isothiourea methanesulphonate]
- cytoprotection under conditions of ischemia and reperfusion [1]: cytoprotective
- direction selectivity of Na/Ca exchange inhibition [2]: greater affinity for suppressing movement in the reverse direction
- effect on Na/Ca exchange [2]: inhibits Na/Ca exchange
- rise in intracellular calcium observed during reperfusion [3]: prevented; also recorded: inhibits the rise in intracellular calcium

Reference: patent publication US9532961B2, “Method and kit for administering γ-glutamyl-D-cysteine for the prevention of reperfusion injury following ischemic stroke” (Rosalind Franklin University of Medicine and Science, priority 2005, dated 2017)
